Reference: patent publication US20240317714A1, “3-[(1H-PYRAZOL-R-YL)OXY]PYRAZIN-2-AMINE COMPOUNDS AS HPK1 INHIBITOR AND USE THEREOF” (BeiGene, Ltd., priority 2020, published 2024)
Values belong to the compound of their own block, whether it stands above or below them.

Legend:
[1] = molecular target: HPK1 kinase (aal-346. Life Technologies) (Homo sapiens (Human), UniProt Q92918); test: HPK Kinase Activity Assay at 1 mM ATP (TR-FRET); type: biochemical; conditions: HPK1 kinase 40 nM, 0.5 μM STK1 substrate, read-out: Enzymatic activity IC50
[2] = system: pSLP76(S376) level in Jurkat cell line; test: Cellular pSLP76(S376) HTRF Assay; type: cell-based; conditions: Homo sapiens, Jurkat, Jurkat cells, 2 h compound treatment, stimulated with 0.05 μg/mL anti-human CD3 (OKT3) for 30 min

Sequence of HPK1 kinase (aal-346. Life Technologies) (Q92918 1-346): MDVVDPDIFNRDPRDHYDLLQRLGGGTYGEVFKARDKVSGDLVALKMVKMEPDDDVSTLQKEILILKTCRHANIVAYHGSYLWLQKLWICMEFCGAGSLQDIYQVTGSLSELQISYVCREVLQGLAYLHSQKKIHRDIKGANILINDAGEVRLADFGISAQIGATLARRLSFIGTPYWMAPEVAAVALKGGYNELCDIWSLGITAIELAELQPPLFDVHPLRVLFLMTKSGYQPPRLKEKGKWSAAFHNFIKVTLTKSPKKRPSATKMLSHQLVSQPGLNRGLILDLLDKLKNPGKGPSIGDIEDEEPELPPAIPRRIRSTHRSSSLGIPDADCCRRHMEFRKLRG

IC50 [1]: 29 nM
IC50 [2]: 69 nM
Compound: Cc1cc(-c2cnc(N)c(Oc3cnn(C4CCN(C)CC4)c3)n2)cc(C2(O)CCOCC2)c1 [Example A58, 4-(3-(5-amino-6-((1-(1-methylpiperidin-4-yl)-1H-pyrazol-4-yl)oxy)pyrazin-2-yl)-5-methylphenyl)tetrahydro-2H-pyran-4-ol]

IC50 [1]: 7 nM
IC50 [2]: 156 nM
Compound: Cc1cc(-c2cnc(N)c(Oc3cnn(C4CCN(C)CC4)c3)n2)cc(C2(O)CCOC2)c1N1CC2(CCOCC2)C1 (stereo not drawn) [Example A92, 3-(5-(5-amino-6-((1-(1-methylpiperidin-4-yl)-1H-pyrazol-4-yl)oxy)pyrazin-2-yl)-3-methyl-2-(7-oxa-2-azaspiro[3.5]nonan-2-yl)phenyl)tetrahydrofuran-3-ol]

IC50 [1]: 10 nM
IC50 [2]: 44 nM
Compound: Cc1cc(-c2cnc(N)c(Oc3cnn(C4CCN(C)CC4)c3)n2)cc([C@@H]2CCC(=O)N2)c1 [Example A61B, (S)-5-(3-(5-amino-6-((1-(1-methylpiperidin-4-yl)-1H-pyrazol-4-yl)oxy)pyrazin-2-yl)-5-methylphenyl)pyrrolidin-2-one]

IC50 [1]: 5.6 nM
IC50 [2]: 59 nM
Compound: CN1CCC(n2cc(Oc3nc(-c4cc(N5CCOCC5)cc(C5(O)COC5)c4)cnc3N)cn2)CC1 [Example A72, 3-(3-(5-amino-6-((1-(1-methylpiperidin-4-yl)-1H-pyrazol-4-yl)oxy)pyrazin-2-yl)-5-morpholinophenyl)oxetan-3-ol]

IC50 [1]: 10 nM
IC50 [2]: 41 nM
Compound: Cc1cc(-c2cnc(N)c(Oc3cnn(C4CCN(C)CC4)c3)n2)cc([C@]2(O)CCOC2)c1 [Example A74B, (R)-3-(3-(5-amino-6-((1-(1-methylpiperidin-4-yl)-1H-pyrazol-4-yl)oxy)pyrazin-2-yl)-5-methylphenyl)tetrahydrofuran-3-ol]

IC50 [1]: 34 nM
IC50 [2]: 85 nM
Compound: Cc1cc(-c2cnc(N)c(Oc3cnn(C4CCN(C)CC4)c3)n2)cc(C2(O)CCCOC2)c1 (stereo not drawn) [Example A88, 3-(3-(5-amino-6-((1-(1-methylpiperidin-4-yl)-1H-pyrazol-4-yl)oxy)pyrazin-2-yl)-5-methylphenyl)tetrahydro-2H-pyran-3-ol]

IC50 [1]: 12 nM
IC50 [2]: 71 nM
Compound: CN1CCC(n2cc(Oc3nc(-c4cc(C5CCOCC5)cc(C5(O)COC5)c4)cnc3N)cn2)CC1 [Example A79, 3-(3-(5-amino-6-((1-(1-methylpiperidin-4-yl)-1H-pyrazol-4-yl)oxy)pyrazin-2-yl)-5-(tetrahydro-2H-pyran-4-yl)phenyl)oxetan-3-ol]

IC50 [1]: 37 nM
IC50 [2]: 72 nM
Compound: CC#Cc1c(C)cc(-c2cnc(N)c(Oc3cnn(C4CCN(C)CC4)c3)n2)cc1C1(O)COC1 [Example A81, 3-(5-(5-amino-6-((1-(1-methylpiperidin-4-yl)-1H-pyrazol-4-yl)oxy)pyrazin-2-yl)-3-methyl-2-(prop-1-yn-1-yl)phenyl)oxetan-3-ol]

IC50 [1]: 12 nM
IC50 [2]: 121 nM
Compound: CNCc1cc(-c2cnc(N)c(Oc3cnn(C4CCN(C)CC4)c3)n2)cc(N2CCC[C@H]2C)n1 [Example B2, (R)-5-(2-((methylamino)methyl)-6-(2-methylpyrrolidin-1-yl)pyridin-4-yl)-3-((1-(1-methylpiperidin-4-yl)-1H-pyrazol-4-yl)oxy)pyrazin-2-amine]

IC50 [1]: 34 nM
IC50 [2]: 111 nM
Compound: Cc1cc(-c2cnc(N)c(Oc3cnn(C4CCN(C)CC4)c3)n2)cc(C)c1CNC1COC1 [Example A55, 5-(3,5-dimethyl-4-((oxetan-3-ylamino)methyl)phenyl)-3-((1-(1-methylpiperidin-4-yl)-1H-pyrazol-4-yl)oxy)pyrazin-2-amine]

IC50 [1]: 5.4 nM
IC50 [2]: 48 nM
Compound: C[C@@H]1COCCN1c1cc(-c2cnc(N)c(Oc3cnn(C4CCN(C)CC4)c3)n2)cc([C@]2(O)CCOC2)c1 [Example A80B, (R)-3-(3-(5-amino-6-((1-(1-methylpiperidin-4-yl)-1H-pyrazol-4-yl)oxy)pyrazin-2-yl)-5-((R)-3-methylmorpholino)phenyl)tetrahydrofuran-3-ol]

IC50 [1]: 37 nM
IC50 [2]: 125 nM
Compound: COCc1cc(-c2cnc(N)c(Oc3cnn(C4CCN(C)CC4)c3)n2)cc(C2(O)COC2)c1 [Example A82, 3-(3-(5-amino-6-((1-(1-methylpiperidin-4-yl)-1H-pyrazol-4-yl)oxy)pyrazin-2-yl)-5-(methoxymethyl)phenyl)oxetan-3-ol]

Second part, the compound before the results:

Compound: CNS(=O)(=O)c1cc(C)cc(-c2cnc(N)c(Oc3cnn(C4CCN(C5CC5)CC4)c3)n2)c1 [Example A24, 3-(5-amino-6-((1-(1-cyclopropylpiperidin-4-yl)-1H-pyrazol-4-yl)oxy)pyrazin-2-yl)-N,5-dimethylbenzenesulfonamide]
IC50 [1]: 104 nM
IC50 [2]: 175 nM

Compound: CNS(=O)(=O)c1cc(C)cc(-c2cnc(N)c(Oc3cnn([C@@H]4C[C@H]5CC[C@@H](C4)N5C)c3)n2)c1 [Example A14, 3-(5-amino-6-((1-((1R,3s,5S)-8-methyl-8-azabicyclo[3.2.1]octan-3-yl)-1H-pyrazol-4-yl)oxy)pyrazin-2-yl)-N,5-dimethylbenzenesulfonamide]
IC50 [1]: 45 nM
IC50 [2]: 59 nM

Compound: CNS(=O)(=O)c1cc(OC(C)C)cc(-c2cnc(N)c(Oc3cnn(C4CCN(C)CC4)c3)n2)c1 [Example A16, 3-(5-amino-6-((1-(1-methylpiperidin-4-yl)-1H-pyrazol-4-yl)oxy)pyrazin-2-yl)-5-isopropoxy-N-methylbenzenesulfonamide; formic acid]
IC50 [1]: 18 nM
IC50 [2]: 80 nM

Compound: Cc1cc(-c2cnc(N)c(Oc3cnn(C4CCN(C)CC4)c3)n2)cc(C)c1CNc1ncn(C)n1 [Example A68, 5-(3,5-dimethyl-4-(((1-methyl-1H-1,2,4-triazol-3-yl)amino)methyl)phenyl)-3-((1-(1-methylpiperidin-4-yl)-1H-pyrazol-4-yl)oxy)pyrazin-2-amine]
IC50 [1]: 51 nM
IC50 [2]: 157 nM

Compound: CCNS(=O)(=O)c1cc(C)cc(-c2cnc(N)c(Oc3cnn(C4CCN(C)CC4)c3)n2)c1 [Example A15, 3-(5-amino-6-((1-(1-methylpiperidin-4-yl)-1H-pyrazol-4-yl)oxy)pyrazin-2-yl)-N-ethyl-5-methylbenzenesulfonamide]
IC50 [1]: 83 nM
IC50 [2]: 157 nM

Compound: Cc1cc(-c2cnc(N)c(Oc3cnn(C4CCN(C)CC4)c3)n2)cc(C)c1CNC(=O)c1ccccc1 [Example A44, N-(4-(5-amino-6-((1-(1-methylpiperidin-4-yl)-1H-pyrazol-4-yl)oxy)pyrazin-2-yl)-2,6-dimethylbenzyl)benzamide]
IC50 [1]: 9 nM
IC50 [2]: 61 nM

Compound: CCN(CC)c1cc(-c2cnc(N)c(Oc3cnn(C4CCN(C)CC4)c3)n2)cc(CNC)n1 [Example B1, 5-(2-(diethylamino)-6-((methylamino)methyl)pyridin-4-yl)-3-((1-(1-methylpiperidin-4-yl)-1H-pyrazol-4-yl)oxy)pyrazin-2-amine]
IC50 [1]: 26 nM
IC50 [2]: 181 nM

Compound: Cc1cc(-c2cnc(N)c(Oc3cnn(C4CCN(C)CC4)c3)n2)cc(C)c1CNS(=O)(=O)N(C)C [Example A62, 5-(4-[[(dimethylsulfamoyl)amino]methyl]-3,5-dimethylphenyl)-3-[[1-(1-methylpiperidin-4-yl)pyrazol-4-yl]oxy]pyrazin-2-amine]
IC50 [1]: 48 nM
IC50 [2]: 79 nM

Compound: Cc1cc(-c2cnc(N)c(Oc3cnn(C4CCN(C)CC4)c3)n2)cc(C)c1C1COC(=O)N1 (stereo not drawn) [Example A29, 4-(4-(5-amino-6-((1-(1-methylpiperidin-4-yl)-1H-pyrazol-4-yl)oxy)pyrazin-2-yl)-2,6-dimethylphenyl)oxazolidin-2-one]
IC50 [1]: 21 nM
IC50 [2]: 97 nM
